Reference: patent US11780812B2, “Oxopyridine derivatives useful as aminocarboxymuconate semialdehyde decarboxylase (ACMSD) inhibitors” (OrsoBio, Inc., priority 2016, dated 2023)

Biological target: human ACMSD (Homo sapiens (Human), UniProt Q8TDX5)
Test: Human ACMSD-1 inhibitor assay (coupled 3-HAO/ACMSD, absorbance at 360 nm)
Conditions: read-out: hACMSD IC50; human ACMSD 6 μg/ml, 50 mM MES pH 6.0, 28° C., four-parameter dose-response fit
Method: A solution of 7.8 μg/ml 3-hydroxyanthranilate 3,4-dioxygenase (3-HAO) with protein dilution buffer (50 mM 4-Morpholineethanesulfonic acid “MES” pH 6.0) and a solution of 6 μg/ml Human 2-amino-3-carboxymuconate-6-semialdehyde decarboxylase (human ACMSD) with protein dilution buffer (50 mM MES pH 6.0) were prepared separately. A serial 2-fold dilution of test compounds, from 512 nM until 0.5 nM were prepared.
The plate was placed into a SpectraMax Plus 384 Microplate Reader, Molecular Devices with the temperature set to 28° C. The absorbance at 360 nm for 10 min with 10 seconds interval was monitored and recorded.
To a 96-well plate was added 50 μl of 6 μg/ml human ACMSD with series concentrations of the test compound. The absorbance was recorded at 360 nm for 10 min with 10 seconds interval. The data was analyzed in GraphPad Prism 6. A four-parameter dose-response curve was fitted. “Hill Slope” was constrained between −0.5 and −3, and such constrains was indicated when applied.

human ACMSD, sequence (Q8TDX5 whole entry): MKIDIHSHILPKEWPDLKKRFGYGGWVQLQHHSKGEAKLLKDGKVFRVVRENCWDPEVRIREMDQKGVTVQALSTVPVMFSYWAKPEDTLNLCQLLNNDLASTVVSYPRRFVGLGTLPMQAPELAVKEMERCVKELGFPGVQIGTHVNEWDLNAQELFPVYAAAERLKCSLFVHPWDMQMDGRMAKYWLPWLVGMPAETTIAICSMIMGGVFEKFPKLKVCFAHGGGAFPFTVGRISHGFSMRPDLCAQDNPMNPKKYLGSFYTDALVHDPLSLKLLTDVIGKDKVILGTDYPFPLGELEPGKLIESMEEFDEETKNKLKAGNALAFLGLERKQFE

SMILES | IC50 [nM]
N#Cc1c(C(F)(F)F)cc(=O)[nH]c1SCC(=O)O [Ex. 1, 2-((3-cyano-6-oxo-4-(trifluoromethyl)-1,6-dihydropyridin-2-yl)thio)acetic acid] | 6
N#Cc1c(C(F)(F)F)cc(=O)[nH]c1SCCC(=O)O [Ex. 2, 3-(3-cyano-6-oxo-4-(trifluoromethyl)-1,6-dihydropyridin-2-ylthio)propanoic acid] | 752
N#Cc1c(C(F)(F)F)cc(=O)[nH]c1SCc1cc(C(=O)O)ccc1Cl [Ex. 3, 4-chloro-3-((3-cyano-6-oxo-4-(trifluoromethyl)-1,6-dihydropyridin-2-ylthio)methyl)benzoic acid] | 158
N#Cc1c(C(F)F)cc(=O)[nH]c1SCC(=O)O [Ex. 4, 2-((3-cyano-4-(difluoromethyl)-6-oxo-1,6-dihydropyridin-2-yl)thio)acetic acid] | 118
Cc1c(C(F)(F)F)c(C#N)c(SCC(=O)O)[nH]c1=O [Ex. 5, 2-((3-cyano-5-methyl-6-oxo-4-(trifluoromethyl)-1,6-dihydropyridin-2-yl)thio)acetic acid] | 26
CCCc1cc(=O)[nH]c(SCC(=O)O)c1C#N [Ex. 6, 2-((3-cyano-6-oxo-4-propyl-1,6-dihydropyridin-2-yl)thio)acetic acid] | 3050
CC(Sc1[nH]c(=O)cc(C(F)(F)F)c1C#N)C(=O)O (centres unmarked) [Ex. 7, 2-(3-cyano-6-oxo-4-(trifluoromethyl)-1,6-dihydropyridin-2-ylthio)propanoic acid] | 271
N#Cc1c(C(F)(F)F)cc(=O)[nH]c1SCc1cccc(C(=O)O)c1 [Ex. 8, 3-((3-cyano-6-oxo-4-(trifluoromethyl)-1,6-dihydropyridin-2-ylthio)methyl)benzoic acid] | 1610
CCc1cc(=O)[nH]c(SCC(=O)O)c1C#N [Ex. 9, 2-((3-cyano-4-ethyl-6-oxo-1,6-dihydropyridin-2-yl)thio)acetic acid] | 3400
CC(C)(C)c1cc(=O)[nH]c(SCC(=O)O)c1C#N [Ex. 10, 2-((4-(tert-butyl)-3-cyano-6-oxo-1,6-dihydropyridin-2-yl)thio)acetic acid] | 4600
COCc1cc(=O)[nH]c(SCC(=O)O)c1C#N [Ex. 11, 2-(3-cyano-4-(methoxymethyl)-6-oxo-1,6-dihydropyridin-2-ylthio)acetic acid] | 9000
N#Cc1c(-c2ccccc2)cc(=O)[nH]c1SCC(=O)O [Ex. 12, 2-((3-cyano-6-oxo-4-phenyl-1,6-dihydropyridin-2-yl)thio)acetic acid] | 7000
CC(C)c1cc(=O)[nH]c(SCC(=O)O)c1C#N [Ex. 13, 2-((3-cyano-4-isopropyl-6-oxo-1,6-dihydropyridin-2-yl)thio)acetic acid] | 2600
N#Cc1c(C2CC2)cc(=O)[nH]c1SCC(=O)O [Ex. 14, 2-((3-cyano-4-cyclopropyl-6-oxo-1,6-dihydropyridin-2-yl)thio)acetic acid] | 7300
N#Cc1c(-c2ccccc2)cc(=O)[nH]c1SCc1cccc(C(=O)O)c1 [Ex. 15, 3-(((3-cyano-6-oxo-4-phenyl-1,6-dihydropyridin-2-yl)thio)methyl)benzoic acid] | 56
COc1ccc(C(=O)O)cc1CSc1[nH]c(=O)cc(C(F)(F)F)c1C#N [Ex. 16, 3-(((3-cyano-6-oxo-4-(trifluoromethyl)-1,6-dihydropyridin-2-yl)thio)methyl)-4-methoxybenzoic acid] | 530
N#Cc1c(SCC(=O)O)[nH]c(=O)c(F)c1C(F)(F)F [Ex. 17, 2-(3-cyano-5-fluoro-6-oxo-4-(trifluoromethyl)-1,6-dihydropyridin-2-ylthio)acetic acid] | 9
N#Cc1c(Cc2ccccc2)cc(=O)[nH]c1SCC(=O)O [Ex. 18, 2-((4-benzyl-3-cyano-6-oxo-1,6-dihydropyridin-2-yl)thio)acetic acid] | 36
N#Cc1c(C(F)(F)F)cc(=O)[nH]c1SCc1cc(C(=O)O)ccc1F [Ex. 19, 3-((3-cyano-6-oxo-4-(trifluoromethyl)-1,6-dihydropyridin-2-ylthio)methyl)-4-fluorobenzoic acid] | 230
N#Cc1c(C(F)(F)F)cc(=O)[nH]c1SCc1cc(F)cc(C(=O)O)c1 [Ex. 20, 3-(((3-cyano-6-oxo-4-(trifluoromethyl)-1,6-dihydropyridin-2-yl)thio)methyl)-5-fluorobenzoic acid] | 350
N#Cc1c(C(F)(F)F)cc(=O)[nH]c1SCc1cccc(C(=O)O)c1F [Ex. 22, 3-(((3-cyano-6-oxo-4-(trifluoromethyl)-1,6-dihydropyridin-2-yl)thio)methyl)-2-fluorobenzoic acid] | 830
N#Cc1c(-c2cccs2)cc(=O)[nH]c1SCc1cccc(C(=O)O)c1 [Ex. 23, 3-(((3-cyano-6-oxo-4-(thiophen-2-yl)-1,6-dihydropyridin-2-yl)thio)methyl)benzoic acid] | 7

SMILES | IC50 [nM]
N#Cc1c(C2CCCCC2)cc(=O)[nH]c1SCc1cccc(C(=O)O)c1 [Ex. 24, 3-(((3-cyano-4-cyclohexyl-6-oxo-1,6-dihydropyridin-2-yl)thio)methyl)benzoic acid] | 470
Cc1cccc(-c2cc(=O)[nH]c(SCc3cccc(C(=O)O)c3)c2C#N)c1 [Ex. 25, 3-(((3-cyano-6-oxo-4-(m-tolyl)-1,6-dihydropyridin-2-yl)thio)methyl)benzoic acid] | 6
N#Cc1c(-c2ccncc2)cc(=O)[nH]c1SCc1cccc(C(=O)O)c1 [Ex. 26, 3-(((3-cyano-6-oxo-1,6-dihydro-[4,4′-bipyridin]-2-yl)thio)methyl)benzoic acid] | 29
N#Cc1c(C(F)(F)F)cc(=O)[nH]c1SC(F)C(=O)O (centres unmarked) [Ex. 27, 2-(3-cyano-6-oxo-4-(trifluoromethyl)-1,6-dihydropyridin-2-ylthio)-2-fluoroacetic acid] | 9
N#Cc1c(C(F)(F)F)cc(=O)[nH]c1SC(F)(F)C(=O)O [Ex. 28, 2-((3-cyano-6-oxo-4-(trifluoromethyl)-1,6-dihydropyridin-2-yl)thio)-2,2-difluoroacetic acid] | 20
Cc1ccc(-c2cc(=O)[nH]c(SCc3cccc(C(=O)O)c3)c2C#N)cc1 [Ex. 29, 3-(((3-cyano-6-oxo-4-(p-tolyl)-1,6-dihydropyridin-2-yl)thio)methyl)benzoic acid] | 4
N#Cc1c(SCc2cccc(C(=O)O)c2)[nH]c(=O)c(F)c1-c1ccccc1 [Ex. 30, 3-(((3-cyano-5-fluoro-6-oxo-4-phenyl-1,6-dihydropyridin-2-yl)thio)methyl)benzoic acid] | 70
Cc1c(-c2ccccc2)c(C#N)c(SCc2cccc(C(=O)O)c2)[nH]c1=O [Ex. 31, 3-((3-cyano-5-methyl-6-oxo-4-phenyl-1,6-dihydropyridin-2-ylthio)methyl)benzoic acid] | > 10000
N#Cc1c(-c2ccccn2)cc(=O)[nH]c1SCc1cccc(C(=O)O)c1 [Ex. 32, 3-(((3′-cyano-6′-oxo-1′,6′-dihydro-[2,4′-bipyridin]-2′-yl)thio)methyl)benzoic acid] | 170
N#Cc1c(-c2ccccc2)cc(=O)[nH]c1SCc1cccc(C(=O)O)n1 [Ex. 33, 6-(((3-cyano-6-oxo-4-phenyl-1,6-dihydropyridin-2-yl)thio)methyl)picolinic acid] | 190
N#Cc1c(-c2ccccc2)cc(=O)[nH]c1SCc1cncc(C(=O)O)c1 [Ex. 34, 5-(((3-cyano-6-oxo-4-phenyl-1,6-dihydropyridin-2-yl)thio)methyl)nicotinic acid] | 3
N#Cc1c(CC2CCCCC2)cc(=O)[nH]c1SCc1cccc(C(=O)O)c1 [Ex. 35, 3-(((3-cyano-4-(cyclohexylmethyl)-6-oxo-1,6-dihydropyridin-2-yl)thio)methyl)benzoic acid] | 200
N#Cc1c(-c2ccsc2)cc(=O)[nH]c1SCc1cccc(C(=O)O)c1 [Ex. 36, 3-((3-cyano-6-oxo-4-(thiophen-3-yl)-1,6-dihydropyridin-2-ylthio)methyl)benzoic acid] | 160
N#Cc1c(-c2cccnc2)cc(=O)[nH]c1SCc1cccc(C(=O)O)c1 [Ex. 37, 3-(((3′-cyano-6′-oxo-1′,6′-dihydro-[3,4′-bipyridin]-2′-yl)thio)methyl)benzoic acid] | 50
N#Cc1c(SCC(=O)O)[nH]c(=O)c(Cl)c1C(F)(F)F [Ex. 38, 2-(5-chloro-3-cyano-6-oxo-4-(trifluoromethyl)-1,6-dihydropyridin-2-ylthio)acetic acid] | 11
N#Cc1c(SCC(=O)O)[nH]c(=O)c(C#N)c1C(F)(F)F [Ex. 39, 2-((3,5-dicyano-6-oxo-4-(trifluoromethyl)-1,6-dihydropyridin-2-yl)thio)acetic acid] | > 10000
N#Cc1c(SCc2nnn[nH]2)[nH]c(=O)c(Cl)c1C(F)(F)F [Ex. 40, 2-((1H-tetrazol-5-yl)methylthio)-5-chloro-6-oxo-4-(trifluoromethyl)-1,6-dihydropyridine-3-carbonitrile] | 4
N#Cc1c(SCc2cccc(C(=O)O)c2)[nH]c(=O)c(Cl)c1-c1ccccc1 [Ex. 41, 3-(((5-chloro-3-cyano-6-oxo-4-phenyl-1,6-dihydropyridin-2-yl)thio)methyl)benzoic acid] | 3
N#Cc1c(C(F)(F)F)cc(=O)[nH]c1SCc1cccc(-c2nnn[nH]2)c1 [Ex. 42, 2-(3-(1H-tetrazol-5-yl)benzylthio)-6-oxo-4-(trifluoromethyl)-1,6-dihydropyridine-3-carbonitrile] | 32
N#Cc1c(C(F)(F)F)cc(=O)[nH]c1SCc1nnn[nH]1 [Ex. 43, 2-(((1H-tetrazol-5-yl)methyl)thio)-6-oxo-4-(trifluoromethyl)-1,6-dihydropyridine-3-carbonitrile] | 4
Cc1ccc(C(=O)O)cc1CSc1[nH]c(=O)cc(C(F)(F)F)c1C#N [Ex. 44, 3-((3-cyano-6-oxo-4-(trifluoromethyl)-1,6-dihydropyridin-2-ylthio)methyl)-4-methylbenzoic acid] | 510
N#Cc1c(C(F)(F)F)cc(=O)[nH]c1SCc1cc(-c2nnn[nH]2)ccc1Cl [Ex. 45, 2-(2-chloro-5-(1H-tetrazol-5-yl)benzylthio)-6-oxo-4-(trifluoromethyl)-1,6-dihydropyridine-3-carbonitrile] | 4
